Data taken from patent US9522873B2, “Biphenyl derivative, pharmaceutically acceptable salt thereof, and methods for preventing or treating inflammatory diseases or autoimmune diseases” (Dongguk University Industry-Academic Cooperation Foundation, priority 2011, dated 2016).

Tests used:
Type in all cases: in vivo
[1] = system: anti-inflammatory protein IkB (inhibitory kappa B); assay: TPA-induced ear edema mouse model: immunohistochemical staining of ear tissue for IkB; settings: ear tissue of TPA-treated ICR mice, 24 hours after TPA, FIG. 8
Description: (§1) The following experiment was performed using tetradecanoyl phorbol acetate (TPA)-induced ear edema (inflammation) mouse models to analyze the anti-inflammatory activity of the novel biphenyl compounds obtained in Example 1. The TPA-induced ear edema mouse model has been widely used to investigate the mechanism of the inflammatory response and the effects of inhibitory substances (Agents and Actions. 1989. 26; 335-341). More specifically, 6-week-old ICR male mice were prepared, and each 20 μl of a TPA solution dissolved in acetone at a concentration of 125 μg/ml was applied to the left ears of mice. After 1 hour of the TPA application, each 20 μl of the solvent or compound 6 (0.3% and 1%) prepared in Example 1 and dissolved in the solvent was applied to the left ears of mice and reapplied after 6 hours of the TPA application. Indomethacin, an anti-inflammatory agent, was applied to the positive control group. Each predetermined area of the left ears of mice was harvested after 24 hours of the TPA application. The weight of each of the left ears of mice was measured, and H&E staining and immunohistochemical staining were performed on ear tissues.

[2] = system: inflammation-related protein p65; assay: TPA-induced ear edema mouse model: immunohistochemical staining of ear tissue for p65; settings: ear tissue of TPA-treated ICR mice, 24 hours after TPA, FIG. 7
Description: as §1

[3] = system: TPA-induced ear edema (inflammation) mouse models; assay: TPA-induced ear edema (inflammation) mouse model: ear weight and H&E staining; settings: ICR male mice, 20 μl of 0.3% and 1% applied to left ear 1 hour and 6 hours after TPA, harvested after 24 hours
Description: as §1

Which “expression of anti-inflammatory protein IkB (inhibitory kappa B)” value [1] does the source give for `CCCCC(=O)N(Cc1ccc(-c2ccccc2C(=O)N2CCN(C)CC2)cc1)c1ccccc1` [compound 4, N-[(2′-(4-methylpiperazine-1-carbonyl)biphenyl-4-yl)methyl]-N-phenylpentanamide] here?
Its value is “increased”.

And the “expression of inflammation-related protein p65” value [2]?
The value was “decreased”.

What about the “inflammation and edema induced by TPA (ear weight)” value ([3]; FIG. 5) of the same molecule?
The value was “inhibited”.

What about the “ear tissues thickened by the edema induced by TPA (H&E staining)” value ([3]; FIG. 6) of the same molecule?
The value was “recovered to normal level”.
